Assay results reported in ChEMBL document CHEMBL1201862, “PubChem BioAssay data set” (2004).
Calls of active or inactive are those of the source.

Columns and labels:
[1] = molecular target: T1, Corticotropin-releasing factor receptor 2/Corticotropin-releasing factor-binding protein (Homo sapiens, UniProt P24387+Q13324); test: activators of CRF receptor 2 with binding protein – uHTS hits, confirmation (AID 602473); format: functional; conditions: read-out: EC50_Mean
T1 sequence (Q13324 whole entry): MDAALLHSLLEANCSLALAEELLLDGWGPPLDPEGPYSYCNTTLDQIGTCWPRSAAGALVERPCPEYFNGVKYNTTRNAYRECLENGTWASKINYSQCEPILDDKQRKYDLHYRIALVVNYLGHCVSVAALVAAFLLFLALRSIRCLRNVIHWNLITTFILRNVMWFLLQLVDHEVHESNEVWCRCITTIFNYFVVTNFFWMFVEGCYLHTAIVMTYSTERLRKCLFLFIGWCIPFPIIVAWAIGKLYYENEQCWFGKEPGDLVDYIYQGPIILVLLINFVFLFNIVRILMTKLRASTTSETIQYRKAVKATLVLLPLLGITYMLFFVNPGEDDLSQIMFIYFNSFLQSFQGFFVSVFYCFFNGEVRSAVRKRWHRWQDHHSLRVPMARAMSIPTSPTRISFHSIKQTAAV
T1 sequence (P24387 whole entry): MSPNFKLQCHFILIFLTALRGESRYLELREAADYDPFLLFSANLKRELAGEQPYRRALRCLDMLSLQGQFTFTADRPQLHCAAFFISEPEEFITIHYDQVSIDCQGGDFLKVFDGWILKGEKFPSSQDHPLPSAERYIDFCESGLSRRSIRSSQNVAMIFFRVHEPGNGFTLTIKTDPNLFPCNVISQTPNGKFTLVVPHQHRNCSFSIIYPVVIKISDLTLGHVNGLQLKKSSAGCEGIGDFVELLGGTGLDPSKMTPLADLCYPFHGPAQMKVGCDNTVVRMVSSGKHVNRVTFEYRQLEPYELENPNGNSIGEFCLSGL

[2] = molecular target: T1, Corticotropin-releasing factor receptor 2/Corticotropin-releasing factor-binding protein; test: Dose Response confirmation of uHTS hits for small molecule antagonists of the CRF-binding protein and CRF-R2 receptor complex.; format: functional; conditions: read-out: IC50_Mean
[3] = general cell-killing toxicity readout – plate reader, dry powder samples, cytotoxicity control for PAX8 inhibitor project, dose response (AID 743021); format: functional, cell-based
[4] = non-specific 3'UTR reporter inhibition in Clone20-Shn3RL – cell-based, Renilla luciferase, cherry-picked, counter-screen for Shn3 inhibitor project, dose response (AID 624133); format: functional
Melanocortin receptor 4 = Melanocortin receptor 4 (Homo sapiens, UniProt P32245); test: inhibitors of MC4R cAMP signaling – cell-based, TR-FRET, biased antagonists, dose response (AID 602298); format: functional;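 note: antagonist potency against agonist-stimulated cAMP production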
[5] = loss of viability in HepG2 cells – cell-based, CellTiter-Glo, cherry-picked, cytotoxicity control for Shn3 inhibitor project, dose response (AID 624134); format: functional
[6] = Fluorescence-based cell-based high throughput dose response assay for inhibitors of the interaction of nucleotide-binding oligomerization domain containing 2 (NOD2) and the receptor-interacting serine-threonine kinase 2 (RIPK2).; format: functional; conditions: Homo sapiens
[7] = reduction of Shn3 3'UTR-driven luciferase in osteoblasts – cell-based, Clone20 osteoblasts, firefly luciferase, cherry-picked, dose response (AID 624132); format: functional;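 note: firefly luciferase luminescence from reporter carrying the Shn3 3'UTR in osteoblasts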
[8] = cAMP pathway inhibition in counterscreen cell line – TR-FRET cAMP detection, counter-screen for MC4R biased antagonist project, dose response (AID 602305); format: functional, cell-based;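 note: U2OS cells stimulated with forskolin near its EC80 as the cAMP inducer; potency is for inhibition of forskolin-stimulated cAMP signaling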
Paired box protein Pax-8 = Paired box protein Pax-8 (Homo sapiens, UniProt Q06710); test: PAX8 transcriptional activity inhibition in RMG-I – RMG-I cells, luciferase, cherry-pick, dose response (AID 687027); format: functional, cell-based;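 note: luciferase reporter driven by Pax8 target thyroperoxidase promoter measured by SteadyGlo luminescence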
Beta Lactamase = Beta Lactamase (Pseudomonas aeruginosa, UniProt Q932Y6); test: BLA reporter interference, concentration series – BLA reporter cells, FRET fluorescence, artefact control for NOD2-RIPK2 interaction inhibitor project, dose response (AID 651552); format: functional, cell-based
P388/ADR = test: cells; format: functional; conditions: Mus musculus
P388 = test: cells; format: functional; conditions: Mus musculus
SN12K1 = test: cells; format: functional; conditions: Homo sapiens
[9] = molecular target: T2, COUP transcription factor 2 (Homo sapiens, UniProt P24468); test: Luminescence-based cell-based high throughput dose response assay to identify inhibitors of COUP-TFII (NR2F2).; format: functional;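 note: HEK293 cells transiently cotransfected with COUP-TFII expression vector and reporter; luciferase reporter luminescence driven by COUP-TFII from the pX2-168 reporter plasmid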
T2 sequence (P24468 whole entry): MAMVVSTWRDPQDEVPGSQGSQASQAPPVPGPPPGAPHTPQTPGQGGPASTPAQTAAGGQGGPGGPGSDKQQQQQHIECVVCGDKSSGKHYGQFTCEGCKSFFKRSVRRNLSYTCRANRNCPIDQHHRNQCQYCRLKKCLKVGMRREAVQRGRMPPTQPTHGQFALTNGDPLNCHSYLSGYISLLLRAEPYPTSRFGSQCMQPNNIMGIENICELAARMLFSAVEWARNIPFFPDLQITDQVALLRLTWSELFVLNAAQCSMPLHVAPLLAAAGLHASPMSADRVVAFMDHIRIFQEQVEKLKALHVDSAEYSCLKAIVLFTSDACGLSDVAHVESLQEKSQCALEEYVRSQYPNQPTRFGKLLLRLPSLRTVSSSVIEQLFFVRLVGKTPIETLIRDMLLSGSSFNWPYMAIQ

[10] = HGIII-sPLA2 enzyme inhibition potency – biochemical, QFRET, IC50, dose response (AID 743457);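 note: green fluorescence rise as the enzyme cleaves BODIPY PC-A2 in liposomes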
[11] = fluconazole-exposed Candida albicans growth modulators – fluorescence, retest, confirmation (AID 2467); format: functional, cell-based
[12] = NIH-3T3 fibroblast cytotoxicity, dose response, cytotoxicity control, cell-based, fluorescence, Alamar Blue, secondary assay (AID 2327); format: functional;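 note: NIH-3T3 mouse fibroblasts cultured with fluconazole at 8 µg/mL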
Streptococcus = test: GAS UMAA2166 growth inhibition – luminescence, BacTiterGlo, counter-screen for streptokinase expression inhibitor project, dose response (AID 1915); format: functional, organism-based;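 note: potency for reduction of bacterial viability or growth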
[13] = system: Streptococcus sp. 'group A'; test: Streptococcus pyogenes SK(-)GAS viability under kanamycin – luminescence, BacTiterGlo, confirmation, counter-screen for streptokinase expression inhibitor project, dose response (AID 1900); format: functional, organism-based
cells [14] = format: functional, cell-based
Albumin = Albumin (Bos taurus, UniProt P02769); test: Counterscreen for inhibitors of T-cell receptor (TCR)-CD3 interaction: Fluorescence-based biochemical high throughput dose response assay to identify inhibitors of T-cell receptor (TCR)-CD3 interaction using a TAMRA-labeled BSA probe.; format: functional
INS1 = test: INS-1E survival protection against cytokine death – cell-based, luminescence, retest, dose response (AID 449756); format: functional; conditions: Rattus norvegicus;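 note: cell death triggered by IL-1 beta plus TNF-alpha plus IFN-gamma mixture; protective hits raise ATP signal compared with cytokine alone wells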
cells [15] = format: functional, cell-based; remark: listed apart in the source
Genome polyprotein = Genome polyprotein (dengue virus type 2, UniProt P29990); test: flavivirus cap methylation enzyme inhibition – biochemical, confirmation dose response, primary screen (AID 588689); format: functional
[16] = molecular target: T3, Polyadenylate-binding protein 1 (Homo sapiens, UniProt P11940); test: MLLE binding blockers, Cy5 peptide tracer – biochemical, fluorescence polarization, Cy5-PAM2 peptide, secondary, miRNA deadenylation inhibitor project, dose response (AID 602260); format: functional; conditions: read-out: IC50_Mean
Vero = test: viability of Vero cells under compound – cytotoxicity control for flavivirus capping enzyme inhibitors (AID 588742); format: functional; conditions: Chlorocebus sabaeus
[17] = molecular target: T3, Polyadenylate-binding protein 1; test: MLLE domain peptide-binding blockers, IC50 – biochemical, fluorescence polarization, FITC-PAM2 peptide, dose response (AID 602259); format: functional; conditions: read-out: IC50_Mean
[18] = molecular target: T4, Ubiquitin-conjugating enzyme E2 N (Homo sapiens, UniProt P61088); format: functional;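 note: Dose-response confirmation in a TR-FRET assay detecting UBC13-driven polyubiquitin chain formation, inhibition measured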
T4 sequence (P61088 whole entry): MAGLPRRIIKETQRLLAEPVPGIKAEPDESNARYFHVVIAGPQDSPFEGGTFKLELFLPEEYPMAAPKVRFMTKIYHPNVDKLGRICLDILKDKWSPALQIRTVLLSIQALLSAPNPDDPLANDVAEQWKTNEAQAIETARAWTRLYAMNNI

[19] = A549 cell cytotoxicity, dose response, cytotoxicity control, plate reader, cherry-pick, antagonist series (AID 743412); format: functional, cell-based
[20] = luciferase reporter signal suppression in cells – H4 neuroglioma cells, luminescence, dose response (AID 1990); format: functional, cell-based
[21] = alpha-synuclein stem-loop luciferase translation blockers – H4 neuroglioma cells, luminescence, confirmation (AID 1988); format: functional, cell-based
[22] = Luminescence Cell-Based Dose Response HTS to Identify Inhibitors of 5'UTR Stem-Loop Driven Prion Protein mRNA Translation in H4 Neuroglioblastoma Cells. [Related pubchem assays: 1827 (Project Summary), 1813 (Primary HTS)]; format: functional

Sequence of Paired box protein Pax-8 (Q06710 whole entry): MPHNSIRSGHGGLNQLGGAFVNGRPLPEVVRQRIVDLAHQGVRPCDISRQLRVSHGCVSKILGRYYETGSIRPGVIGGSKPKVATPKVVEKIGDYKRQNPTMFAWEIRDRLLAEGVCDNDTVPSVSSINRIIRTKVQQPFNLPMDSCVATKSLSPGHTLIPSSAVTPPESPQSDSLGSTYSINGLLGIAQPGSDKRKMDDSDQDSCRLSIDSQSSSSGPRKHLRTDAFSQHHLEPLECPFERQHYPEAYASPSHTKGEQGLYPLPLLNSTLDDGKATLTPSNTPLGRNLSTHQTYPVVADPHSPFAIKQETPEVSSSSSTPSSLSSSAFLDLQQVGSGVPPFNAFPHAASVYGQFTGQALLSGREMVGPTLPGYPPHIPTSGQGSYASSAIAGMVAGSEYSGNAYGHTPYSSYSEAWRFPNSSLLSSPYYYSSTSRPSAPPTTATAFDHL
Sequence of Beta Lactamase (Q932Y6 whole entry): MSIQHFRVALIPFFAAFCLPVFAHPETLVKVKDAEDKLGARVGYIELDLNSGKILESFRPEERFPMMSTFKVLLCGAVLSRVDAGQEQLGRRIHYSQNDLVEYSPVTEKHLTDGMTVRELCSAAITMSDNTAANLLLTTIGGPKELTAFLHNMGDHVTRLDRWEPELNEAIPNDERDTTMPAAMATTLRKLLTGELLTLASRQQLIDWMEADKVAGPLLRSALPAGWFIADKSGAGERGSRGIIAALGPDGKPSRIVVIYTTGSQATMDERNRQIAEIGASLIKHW
T3 sequence (P11940 whole entry): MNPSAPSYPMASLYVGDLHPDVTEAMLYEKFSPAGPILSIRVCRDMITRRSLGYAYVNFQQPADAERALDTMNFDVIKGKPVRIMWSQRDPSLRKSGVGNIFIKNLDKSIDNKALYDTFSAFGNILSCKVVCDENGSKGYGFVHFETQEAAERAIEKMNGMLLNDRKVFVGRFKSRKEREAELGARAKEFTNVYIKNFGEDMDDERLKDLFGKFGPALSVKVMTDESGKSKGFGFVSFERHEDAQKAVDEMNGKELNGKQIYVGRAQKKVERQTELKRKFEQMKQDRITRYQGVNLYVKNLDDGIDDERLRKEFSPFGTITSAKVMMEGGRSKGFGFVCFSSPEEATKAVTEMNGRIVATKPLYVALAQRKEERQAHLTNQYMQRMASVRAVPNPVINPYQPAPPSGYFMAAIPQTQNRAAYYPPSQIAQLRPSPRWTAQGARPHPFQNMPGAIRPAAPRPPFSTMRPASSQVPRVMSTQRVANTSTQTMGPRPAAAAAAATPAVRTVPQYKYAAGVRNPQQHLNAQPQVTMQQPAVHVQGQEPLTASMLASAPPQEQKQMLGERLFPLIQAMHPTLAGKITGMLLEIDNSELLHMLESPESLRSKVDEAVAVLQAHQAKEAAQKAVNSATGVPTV
Sequence of Albumin (P02769 whole entry): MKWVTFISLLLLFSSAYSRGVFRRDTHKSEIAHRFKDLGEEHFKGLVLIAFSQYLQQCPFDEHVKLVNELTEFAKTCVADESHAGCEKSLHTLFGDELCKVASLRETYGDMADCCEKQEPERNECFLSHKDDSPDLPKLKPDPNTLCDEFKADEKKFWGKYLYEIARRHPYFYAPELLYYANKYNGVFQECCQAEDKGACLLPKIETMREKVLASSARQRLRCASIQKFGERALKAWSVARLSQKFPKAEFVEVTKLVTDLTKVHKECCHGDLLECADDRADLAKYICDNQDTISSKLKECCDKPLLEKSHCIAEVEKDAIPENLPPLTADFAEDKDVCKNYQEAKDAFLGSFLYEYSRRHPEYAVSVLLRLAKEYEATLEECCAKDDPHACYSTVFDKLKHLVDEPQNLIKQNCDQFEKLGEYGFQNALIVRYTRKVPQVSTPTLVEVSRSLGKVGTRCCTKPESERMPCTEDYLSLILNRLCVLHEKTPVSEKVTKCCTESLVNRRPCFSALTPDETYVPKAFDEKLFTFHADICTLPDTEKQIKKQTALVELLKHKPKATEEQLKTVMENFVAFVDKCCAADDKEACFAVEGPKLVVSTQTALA
Sequence of Melanocortin receptor 4 (P32245 whole entry): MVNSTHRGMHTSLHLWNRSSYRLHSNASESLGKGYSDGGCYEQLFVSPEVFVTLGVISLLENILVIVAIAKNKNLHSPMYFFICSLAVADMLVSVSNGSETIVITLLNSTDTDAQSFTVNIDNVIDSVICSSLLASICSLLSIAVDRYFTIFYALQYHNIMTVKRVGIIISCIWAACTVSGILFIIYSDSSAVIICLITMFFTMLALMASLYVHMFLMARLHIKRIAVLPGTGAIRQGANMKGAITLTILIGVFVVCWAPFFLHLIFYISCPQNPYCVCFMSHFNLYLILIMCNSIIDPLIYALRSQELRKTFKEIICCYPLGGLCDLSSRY
Sequence of Genome polyprotein (P29990 2492-3391 limits assumed): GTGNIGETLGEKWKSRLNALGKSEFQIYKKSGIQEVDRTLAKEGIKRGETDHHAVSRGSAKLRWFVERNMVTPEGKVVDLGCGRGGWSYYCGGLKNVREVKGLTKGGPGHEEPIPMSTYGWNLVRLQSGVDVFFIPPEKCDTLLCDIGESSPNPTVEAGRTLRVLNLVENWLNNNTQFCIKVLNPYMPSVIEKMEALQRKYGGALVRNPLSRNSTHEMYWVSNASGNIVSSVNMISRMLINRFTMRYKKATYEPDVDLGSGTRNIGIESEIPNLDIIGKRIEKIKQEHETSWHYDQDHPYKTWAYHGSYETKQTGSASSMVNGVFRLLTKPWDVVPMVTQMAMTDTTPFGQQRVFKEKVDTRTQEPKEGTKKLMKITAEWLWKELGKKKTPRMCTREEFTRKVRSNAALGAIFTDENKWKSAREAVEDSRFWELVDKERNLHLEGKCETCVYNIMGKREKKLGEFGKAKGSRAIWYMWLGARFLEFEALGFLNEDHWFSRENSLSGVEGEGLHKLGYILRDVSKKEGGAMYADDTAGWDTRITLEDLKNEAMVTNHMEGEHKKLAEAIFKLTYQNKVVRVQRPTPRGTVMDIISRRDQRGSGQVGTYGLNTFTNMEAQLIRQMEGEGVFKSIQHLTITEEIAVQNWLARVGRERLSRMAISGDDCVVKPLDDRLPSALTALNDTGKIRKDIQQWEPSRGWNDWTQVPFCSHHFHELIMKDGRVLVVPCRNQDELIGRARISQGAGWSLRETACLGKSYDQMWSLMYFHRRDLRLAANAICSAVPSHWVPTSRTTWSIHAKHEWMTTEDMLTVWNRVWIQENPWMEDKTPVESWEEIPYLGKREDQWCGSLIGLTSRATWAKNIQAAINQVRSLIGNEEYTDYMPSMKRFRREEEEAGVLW

## Nc1ccc(S(=O)(=O)Nc2ccc(Cl)nn2)cc1 [SULFACHLORPYRIDAZINE]
[1]
  EC50: > 53 µM (inactive)
[2]
  IC50: > 47.1 µM (inactive)

## Cc1ccc(-c2ccc(=O)n(Cc3cc(C)ccc3C)n2)cc1
[1]
  EC50: > 53 µM (inactive)
[2]
  IC50: > 47.1 µM (inactive)

## CC(OC(=O)c1ccc(S(C)(=O)=O)c([N+](=O)[O-])c1)C(=O)NC1C2CC3CC(C2)CC1C3 (stereo not drawn)
[3]
  AC50: 22.6 µM (active)
[4]
  AC50: 7.51 µM (active)
Melanocortin receptor 4
  IC50: > 64.6 µM (inactive)
[5]
  AC50: 8.28 µM (active)
[6]
  IC50: 0.8 µM (active)
[7]
  AC50: 1.4 µM (active)
[8]
  IC50: > 64.6 µM (inactive)
Paired box protein Pax-8
  AC50: 5.88 µM (active)
Beta Lactamase
  IC50: 49.8 µM (inactive)

## C(=C/c1nc2ccccc2o1)/c1ccc2c(c1)OCO2
P388/ADR
  GI50: 3.99 µM (inactive)
P388
  GI50: 3.52 µM (inactive)
SN12K1
  GI50: 5.62 µM (inactive)

## COc1ccc(NC(=O)COc2ccc(N(C)S(=O)(=O)c3ccc(Cl)cc3)cc2)cc1OC
[9]
  IC50: 6.67 µM (active)
[4]
  AC50: 1.81 µM (active)
[5]
  AC50: 32.1 µM (active)
[7]
  AC50: 1.35 µM (active)

## Cc1ccc(N2Cc3c(ccc4ccccc34)OP2(=O)Oc2ccc(Cl)c(C)c2)cc1 (stereo not drawn)
P388/ADR
  GI50: 7.45 µM (inactive)
P388
  GI50: 4.75 µM (inactive)
SN12K1
  GI50: > 77.8 µM (inactive)

## O=C(Cn1ncc2c3ccccc3nc-2c1O)NCC1CCN(Cc2ccccc2F)CC1
[1]
  EC50: > 53 µM (inactive)
[2]
  IC50: > 47.1 µM (inactive)

## S=P1(N2CCCCC2)Oc2ccc3ccccc3c2-c2c(ccc3ccccc23)O1
P388/ADR
  GI50: > 100 µM (inactive)
P388
  GI50: 48.4 µM (inactive)
SN12K1
  GI50: > 61.8 µM (inactive)

## Cc1nc(-c2ccc(NC(=O)c3ccco3)cc2)cs1
[3]
  AC50: 17.1 µM (active)
Paired box protein Pax-8
  AC50: 8.26 µM (active)

## CCCC(=O)Nc1nnc(Sc2ccc(N(C)C)cc2)s1
[1]
  EC50: > 53 µM (inactive)
[2]
  IC50: > 47.1 µM (inactive)

## COc1ccc(OCC(C)(C)O)cc1
P388/ADR
  GI50: 1.31 µM (inactive)
P388
  GI50: 38.2 µM (inactive)
SN12K1
  GI50: > 100 µM (inactive)

## S=C(Nc1ccc(Cl)cc1)c1nc2ccccc2[nH]1
[10]
  IC50: > 122 µM (inactive)
[11]
  EC50: > 38 µM (not active)
[12]
  EC50: 19 µM (active)
Streptococcus
  EC50: 3.17 µM (active)
[13]
  EC50: 1.26 µM (active)

## Cc1cc(Br)cc(/C=N/NC(=O)c2ccc3c(c2)OCO3)c1O
Cells [14]
  EC50: 96.8 µM (active)
[10]
  IC50: > 122 µM (inactive)
Streptococcus
  EC50: 3.25 µM (active)
Albumin
  IC50: > 94.1 µM (inactive)
INS1
  AC50: 1.32 µM (active)
Cells [15]
  EC50: 75.7 µM (active)
[13]
  EC50: 1.22 µM (active)

## O=C1C(Cl)=CC(=Nc2ccc(O)cc2)C=C1Cl
Genome polyprotein
  IC50: 7.02 µM (active)
[16]
  IC50: > 66 µM (inactive)
Vero
  CC50: 37.7 µM (active)
[17]
  IC50: > 66 µM (inactive)

## COc1cccc(/C=C2/Sc3ccc(C(=O)NCCN4CCCCCC4)cc3NC2=O)c1
[3]
  AC50: 36 µM (active)
[18]
  IC50: > 20 µM (inactive)
Paired box protein Pax-8
  AC50: 10.1 µM (active)

## CC(=O)N1CCc2cc(S(=O)(=O)C(C)CC(=O)NCc3ccco3)ccc21 (stereo not drawn)
[19]
  AC50: > 52 µM (inactive)

## O=S1(=O)CS(=O)(=O)OCCO1
P388/ADR
  GI50: 7.36 µM (inactive)
P388
  GI50: 10.8 µM (inactive)
SN12K1
  GI50: 28.6 µM (inactive)

## Cc1cccc(CS(=O)(=O)c2ncc(Cl)c(C(=O)NCc3ccccc3)n2)c1
[4]
  AC50: 14 µM (active)
[5]
  AC50: 18.8 µM (active)
[6]
  IC50: 2.77 µM (active)
[7]
  AC50: 2.94 µM (active)
[20]
  EC50: > 120 µM (not active)
[21]
  EC50: 12 µM (active)
[22]
  EC50: 26.1 µM (active)
Beta Lactamase
  IC50: 12.3 µM (inactive)

## COc1ccc(S(=O)(=O)N(C(=O)c2ccco2)c2cc3sc(=O)oc3c3ccccc23)cc1
Vero
  CC50: 27.7 µM (active)
INS1
  AC50: 4.56 µM (active)
